Measured values reported in patent US10106534B2 (CELGENE QUANTICEL RESEARCH, INC., priority 2014, dated 2018).

What was measured:
JMJD2C = JMJD2C (Homo sapiens (Human), UniProt Q9H3R0); assay: In vitro enzyme inhibition assay for JMJD2C activity (TR-FRET); format: biochemical
Outline: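 Baculovirus JMJD2C (AA 2-372), 0.3 nM, with 300 nM biotin-H3K9me3 peptide and 2 μM α-ketoglutarate in HEPES pH 7.3 containing Fe(II) and ascorbate, 30 min at room temperature, 11-point dilutions. H3K9me2 product by TR-FRET (Eu-antibody/streptavidin-APC, 665/615 ratio); IC50 fitted.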

JMJD3 = JMJD3 (Homo sapiens, UniProt O15054); assay: In vitro enzyme inhibition assay for JMJD3 activity (TR-FRET); format: biochemical
[1] = system: KYSE-150 esophageal carcinoma cell line; assay: In vitro cell-based assay: cellular proliferation via BrdU incorporation (ELISA); set-up: species or system human; settings: Homo sapiens, KYSE-150, 168 hours compound incubation
Outline: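 KYSE-150 cells (JMJD2C-amplified; SMAD4 and TP53 mutant), 2,000/well, were treated after overnight attachment with an 11-point series (100 μM to 2 nM) for 168 h. Proliferation was read by BrdU ELISA (2 h labelling, anti-BrdU-peroxidase, TMB, 450 nm) and IC50 fitted.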

Chain of JMJD2C (Q9H3R0 2-372): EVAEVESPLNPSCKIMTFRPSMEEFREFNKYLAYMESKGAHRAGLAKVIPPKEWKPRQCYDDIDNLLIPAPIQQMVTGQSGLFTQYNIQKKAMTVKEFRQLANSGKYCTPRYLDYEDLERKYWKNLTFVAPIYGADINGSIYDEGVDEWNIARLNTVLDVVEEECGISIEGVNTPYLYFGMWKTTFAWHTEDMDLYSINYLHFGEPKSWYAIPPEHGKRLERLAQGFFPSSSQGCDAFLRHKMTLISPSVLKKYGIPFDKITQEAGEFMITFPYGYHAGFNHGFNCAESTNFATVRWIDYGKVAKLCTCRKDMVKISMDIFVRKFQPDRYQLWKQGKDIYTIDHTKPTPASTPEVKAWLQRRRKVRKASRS

| Structure (SMILES) | IC50 (JMJD2C) [nM] | IC50 (JMJD3) [µM] | IC50 [1] [nM] |
| --- | --- | --- | --- |
| CN(c1ccc(N2CCC2)cc1)c1ccc2c(c1)OCC[C@H]2CNc1cnccc1C(=O)O [Example 183, 3-({[(4R)-7-{[4-(azetidin-1-yl)phenyl](methyl)amino}-3,4-dihydro-2H-1-benzopyran-4-yl]methyl}amino)pyridine-4-carboxylic acid] | 100 to 1000 | 1 to 10 | ≤ 100 |
| CCOc1ccc(N(C)c2ccc3c(c2)CCC[C@H]3CNc2cnccc2C(=O)O)cc1 [Example 185, 3-({[(1R)-6-[(4-ethoxyphenyl)(methyl)amino]-1,2,3,4-tetrahydronaphthalen-1-yl]methyl}amino)pyridine-4-carboxylic acid] | 100 to 1000 | 1 to 10 | ≤ 100 |
| CC(C)c1ccc(N(C)c2ccc3c(c2)OCC[C@H]3CNc2cnccc2C(=O)O)cc1 [Example 187, 3-({[(4R)-7-{methyl[4-(propan-2-yl)phenyl]amino}-3,4-dihydro-2H-1-benzopyran-4-yl]methyl}amino)pyridine-4-carboxylic acid] | 100 to 1000 | 1 to 10 | ≤ 100 |
| CN(c1ccc(OC(F)F)cc1)c1ccc2c(c1)OCC[C@H]2CNc1cnccc1C(=O)O [Example 190, 3-({[(4R)-7-{[4-(difluoromethoxy)phenyl](methyl)amino}-3,4-dihydro-2H-1-benzopyran-4-yl]methyl}amino)pyridine-4-carboxylic acid] | 100 to 1000 | 1 to 10 | ≤ 100 |
| CN(c1ccccc1)c1ccc2c(c1)CCC[C@H]2CNc1nnccc1C(=O)O [Example 191, 3-({[(1R)-6-[methyl(phenyl)amino]-1,2,3,4-tetrahydronaphthalen-1-yl]methyl}amino)pyridazine-4-carboxylic acid] | 100 to 1000 | 1 to 10 | ≤ 100 |
| CN(c1ccc(CC(F)(F)F)cc1)c1ccc2c(c1)OCC[C@H]2CNc1cnccc1C(=O)O [Example 192, 3-({[(4R)-7-{methyl[4-(2,2,2-trifluoroethyl)phenyl]amino}-3,4-dihydro-2H-1-benzopyran-4-yl]methyl}amino)pyridine-4-carboxylic acid] | 100 to 1000 | 1 to 10 | ≤ 100 |
| CN(c1ccc(-n2ccnc2)cc1)c1ccc2c(c1)CCC[C@H]2CNc1cnccc1C(=O)O [Example 193, 3-({[(1R)-6-{[4-(1H-imidazol-1-yl)phenyl](methyl)amino}-1,2,3,4-tetrahydronaphthalen-1-yl]methyl}amino)pyridine-4-carboxylic acid] | 100 to 1000 | 1 to 10 | 100 to 1000 |
| CN(c1ccc(-n2ccnc2)cc1)c1ccc2c(c1)OCC[C@H]2CNc1cnccc1C(=O)O [Example 194, 3-({[(4R)-7-{[4-(1H-imidazol-1-yl)phenyl](methyl)amino}-3,4-dihydro-2H-1-benzopyran-4-yl]methyl}amino)pyridine-4-carboxylic acid] | 100 to 1000 | 1 to 10 | 1000 to 10000 |
| CN(c1ccc(C2CCOCC2)cc1)c1ccc2c(c1)OCC[C@H]2CNc1cnccc1C(=O)O [Example 202, 3-({[(4R)-7-{methyl[4-(oxan-4-yl)phenyl]amino}-3,4-dihydro-2H-1-benzopyran-4-yl]methyl}amino)pyridine-4-carboxylic acid] | 100 to 1000 | 1 to 10 | ≤ 100 |
| CN(c1ccc(OCC2CC2)cc1)c1ccc2c(c1)CCC[C@H]2CNc1cnccc1C(=O)O [Example 209, 3-({[(1R)-6-{[4-(cyclopropylmethoxy)phenyl](methyl)amino}-1,2,3,4-tetrahydronaphthalen-1-yl]methyl}amino)pyridine-4-carboxylic acid] | 100 to 1000 | 1 to 10 | ≤ 100 |

Second part, the molecule after the results:

| IC50 (JMJD2C) [nM] | IC50 (JMJD3) [µM] | IC50 [1] [nM] | Structure (SMILES) |
| --- | --- | --- | --- |
| 100 to 1000 | 1 to 10 | 1000 to 10000 | CN(c1ccc(O)cc1)c1ccc2c(c1)CCC[C@H]2CNc1cnccc1C(=O)O [Example 165, 3-({[(1R)-6-[(4-hydroxyphenyl)(methyl)amino]-1,2,3,4-tetrahydronaphthalen-1-yl]methyl}amino)pyridine-4-carboxylic acid] |
| 100 to 1000 | 1 to 10 | > 10000 | Cc1noc(C)c1N(C)c1ccc2c(c1)CCC[C@H]2CNc1cnccc1C(=O)O [Example 166, 3-({[(1R)-6-[(dimethyl-1,2-oxazol-4-yl)(methyl)amino]-1,2,3,4-tetrahydronaphthalen-1-yl]methyl}amino)pyridine-4-carboxylic acid] |
| 100 to 1000 | 1 to 10 | ≤ 100 | CN(c1ccc(N2CCOCC2)cc1)c1ccc2c(c1)CCC[C@H]2CNc1cnccc1C(=O)O [Example 170, 3-({[(1R)-6-{methyl[4-(morpholin-4-yl)phenyl]amino}-1,2,3,4-tetrahydronaphthalen-1-yl]methyl}amino)pyridine-4-carboxylic acid] |
| 100 to 1000 | 1 to 10 | ≤ 100 | CN(c1ccc(OC(F)F)cc1)c1ccc2c(c1)CCC[C@H]2CNc1cnccc1C(=O)O [Example 184, 3-({[(1R)-6-{[4-(difluoromethoxy)phenyl](methyl)amino}-1,2,3,4-tetrahydronaphthalen-1-yl]methyl}amino)pyridine-4-carboxylic acid] |
